Source: patent publication US11572590B2, “Methods for evaluating tumor cell spheroids using 3D microfluidic cell culture device” (Dana-Farber Cancer Institute, Inc., priority 2017, dated 2023)
Where two headings read alike, the source gives them in different places.

Columns and labels:
Assay in all cases: SelectScreen Kinase Profiling, single point inhibition and IC50 for off-target kinases
Format in all cases: biochemical
off-target kinases [1] = biological target: off-target kinases (Homo sapiens, UniProt P68400); conditions: CSNK2A1 (CK2 alpha 1), ZLYTE, ATP Km app
off-target kinases [2] = biological target: off-target kinases (Homo sapiens, UniProt P49840); conditions: GSK3A (GSK3 alpha), ZLYTE, ATP Km app
off-target kinases [3] = biological target: off-target kinases (Homo sapiens, UniProt P00519, M351T); conditions: ABL1 M351T, LanthaScreen Binding
off-target kinases [4] = biological target: off-target kinases (Homo sapiens, UniProt Q15303); conditions: ERBB4 (HER4), ZLYTE, ATP Km app
off-target kinases [5] = biological target: off-target kinases (Homo sapiens, UniProt Q9H3Y6); conditions: SRMS (Srm), ZLYTE, ATP Km app
off-target kinases [6] = biological target: off-target kinases (Homo sapiens, UniProt P22612); conditions: PRKACG (PRKAC gamma), LanthaScreen Binding
off-target kinases [7] = biological target: T1, off-target kinases (Homo sapiens, UniProt Q6PHR2); conditions: ULK3, LanthaScreen Binding
T1 sequence (Q6PHR2 1-472): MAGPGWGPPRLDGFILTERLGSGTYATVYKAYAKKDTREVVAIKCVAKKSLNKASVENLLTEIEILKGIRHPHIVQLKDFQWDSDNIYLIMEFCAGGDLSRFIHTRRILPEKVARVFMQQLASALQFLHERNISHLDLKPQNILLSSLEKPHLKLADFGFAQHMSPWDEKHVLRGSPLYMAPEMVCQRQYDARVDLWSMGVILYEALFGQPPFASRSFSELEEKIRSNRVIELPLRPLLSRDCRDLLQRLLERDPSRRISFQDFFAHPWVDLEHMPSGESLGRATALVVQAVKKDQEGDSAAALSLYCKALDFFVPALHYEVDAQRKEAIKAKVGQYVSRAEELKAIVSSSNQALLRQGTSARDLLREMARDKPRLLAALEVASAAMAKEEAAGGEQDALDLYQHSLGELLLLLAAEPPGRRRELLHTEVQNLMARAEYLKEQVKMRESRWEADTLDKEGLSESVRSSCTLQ

Chain of off-target kinases (Homo sapiens, UniProt P49840) (P49840 whole entry): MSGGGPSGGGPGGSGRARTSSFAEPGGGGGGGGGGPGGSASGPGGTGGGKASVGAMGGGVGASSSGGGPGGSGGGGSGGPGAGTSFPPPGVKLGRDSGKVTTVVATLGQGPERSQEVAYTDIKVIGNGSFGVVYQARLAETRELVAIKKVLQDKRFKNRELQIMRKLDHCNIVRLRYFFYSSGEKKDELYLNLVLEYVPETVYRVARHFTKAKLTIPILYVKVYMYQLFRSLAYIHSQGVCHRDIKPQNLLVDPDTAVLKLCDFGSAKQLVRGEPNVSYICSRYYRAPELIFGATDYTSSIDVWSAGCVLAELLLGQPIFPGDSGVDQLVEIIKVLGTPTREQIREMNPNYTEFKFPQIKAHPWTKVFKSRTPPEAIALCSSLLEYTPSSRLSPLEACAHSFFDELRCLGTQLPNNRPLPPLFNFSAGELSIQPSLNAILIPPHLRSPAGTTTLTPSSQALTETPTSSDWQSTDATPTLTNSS
Chain of off-target kinases (Homo sapiens, UniProt Q9H3Y6) (Q9H3Y6 whole entry): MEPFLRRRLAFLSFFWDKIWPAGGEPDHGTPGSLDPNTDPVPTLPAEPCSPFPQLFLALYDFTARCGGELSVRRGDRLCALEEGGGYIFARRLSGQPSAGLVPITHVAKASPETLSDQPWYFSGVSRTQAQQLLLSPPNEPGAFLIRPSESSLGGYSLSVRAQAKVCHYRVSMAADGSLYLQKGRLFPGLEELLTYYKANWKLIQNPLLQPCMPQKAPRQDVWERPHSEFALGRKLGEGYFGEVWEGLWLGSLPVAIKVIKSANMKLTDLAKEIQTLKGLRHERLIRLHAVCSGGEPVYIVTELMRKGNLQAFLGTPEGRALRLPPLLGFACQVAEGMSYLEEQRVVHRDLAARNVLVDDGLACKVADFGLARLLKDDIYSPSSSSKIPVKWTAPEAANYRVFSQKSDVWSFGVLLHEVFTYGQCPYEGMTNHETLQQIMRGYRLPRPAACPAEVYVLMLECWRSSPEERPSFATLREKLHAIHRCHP
Chain of off-target kinases (Homo sapiens, UniProt Q15303) (Q15303 26-1308): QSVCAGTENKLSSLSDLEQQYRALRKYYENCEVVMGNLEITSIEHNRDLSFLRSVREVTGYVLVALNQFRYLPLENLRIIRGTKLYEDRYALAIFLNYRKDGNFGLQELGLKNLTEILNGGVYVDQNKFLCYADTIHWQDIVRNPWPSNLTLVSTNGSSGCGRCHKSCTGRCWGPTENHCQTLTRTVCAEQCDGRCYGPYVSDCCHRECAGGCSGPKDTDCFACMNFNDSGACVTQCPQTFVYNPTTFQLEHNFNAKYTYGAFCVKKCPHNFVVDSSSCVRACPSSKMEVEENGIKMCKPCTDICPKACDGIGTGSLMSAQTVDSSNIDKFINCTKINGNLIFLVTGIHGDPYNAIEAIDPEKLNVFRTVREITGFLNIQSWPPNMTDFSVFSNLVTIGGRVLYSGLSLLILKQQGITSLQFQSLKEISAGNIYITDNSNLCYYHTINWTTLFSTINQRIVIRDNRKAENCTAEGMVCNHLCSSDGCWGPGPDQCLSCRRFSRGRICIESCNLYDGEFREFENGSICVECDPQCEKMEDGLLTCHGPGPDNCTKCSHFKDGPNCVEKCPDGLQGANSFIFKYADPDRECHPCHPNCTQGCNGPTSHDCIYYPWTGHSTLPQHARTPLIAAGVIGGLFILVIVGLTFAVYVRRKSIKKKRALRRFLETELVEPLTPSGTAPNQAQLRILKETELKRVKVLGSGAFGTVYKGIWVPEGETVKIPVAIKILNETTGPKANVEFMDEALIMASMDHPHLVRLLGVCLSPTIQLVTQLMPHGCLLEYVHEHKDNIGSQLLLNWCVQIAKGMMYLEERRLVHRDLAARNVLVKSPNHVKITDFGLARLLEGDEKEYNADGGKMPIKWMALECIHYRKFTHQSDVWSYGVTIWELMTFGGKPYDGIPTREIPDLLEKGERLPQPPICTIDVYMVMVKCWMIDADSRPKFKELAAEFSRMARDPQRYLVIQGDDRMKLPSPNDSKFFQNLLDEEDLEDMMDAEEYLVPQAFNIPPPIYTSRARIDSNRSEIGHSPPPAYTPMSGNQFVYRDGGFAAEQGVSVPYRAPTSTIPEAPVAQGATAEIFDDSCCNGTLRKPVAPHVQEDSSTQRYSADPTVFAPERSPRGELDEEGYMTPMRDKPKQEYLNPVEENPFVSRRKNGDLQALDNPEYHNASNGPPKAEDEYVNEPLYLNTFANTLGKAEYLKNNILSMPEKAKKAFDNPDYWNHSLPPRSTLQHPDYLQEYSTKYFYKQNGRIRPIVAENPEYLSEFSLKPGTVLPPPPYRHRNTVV
Chain of off-target kinases (Homo sapiens, UniProt P22612) (P22612 whole entry): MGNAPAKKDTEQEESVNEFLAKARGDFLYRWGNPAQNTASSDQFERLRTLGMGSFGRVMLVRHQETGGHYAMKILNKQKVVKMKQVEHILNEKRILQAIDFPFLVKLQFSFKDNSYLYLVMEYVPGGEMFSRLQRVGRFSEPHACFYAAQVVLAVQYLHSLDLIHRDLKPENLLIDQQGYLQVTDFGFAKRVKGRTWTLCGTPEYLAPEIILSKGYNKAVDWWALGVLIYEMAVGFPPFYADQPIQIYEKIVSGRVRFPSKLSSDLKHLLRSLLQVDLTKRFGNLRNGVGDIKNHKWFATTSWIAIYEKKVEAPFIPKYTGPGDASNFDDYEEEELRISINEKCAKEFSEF
Chain of off-target kinases (Homo sapiens, UniProt P68400) (P68400 whole entry): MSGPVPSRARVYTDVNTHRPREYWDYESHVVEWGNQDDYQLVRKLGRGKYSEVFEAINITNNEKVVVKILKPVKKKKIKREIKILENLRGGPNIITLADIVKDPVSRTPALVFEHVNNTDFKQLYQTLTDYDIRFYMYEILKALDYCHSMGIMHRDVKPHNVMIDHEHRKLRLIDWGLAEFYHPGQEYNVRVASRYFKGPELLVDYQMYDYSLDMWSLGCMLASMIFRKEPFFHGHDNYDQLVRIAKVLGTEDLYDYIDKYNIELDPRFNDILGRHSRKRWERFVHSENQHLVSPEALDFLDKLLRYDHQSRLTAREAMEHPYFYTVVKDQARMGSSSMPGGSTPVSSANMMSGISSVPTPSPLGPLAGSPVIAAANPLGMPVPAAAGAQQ

SMILES: N#Cc1cc(-c2ncnc(Nc3ccc(N4CCN(C5COC5)CC4)cc3)n2)ccc1OC1CCOCC1 [Compound 1, 5-(4-((4-(4-(oxetan-3-yl)piperazin-1-yl)phenyl)amino)-1,3,5-triazin-2-yl)-2-((tetrahydro-2H-pyran-4-yl)oxy)benzonitrile]
- inhibition (off-target kinases [1]; read-out: % Inhibition 1): 13%
- inhibition (off-target kinases [1]; read-out: % Inhibition 2): 7%
- inhibition (off-target kinases [1]; read-out: % Inhibition Avg): 10%
- inhibition (off-target kinases [2]; read-out: % Inhibition 1): 20%
- inhibition (off-target kinases [2]; read-out: % Inhibition 2): 22%
- inhibition (off-target kinases [2]; read-out: % Inhibition Avg): 21%
- inhibition (off-target kinases [3]; read-out: % Inhibition 1): 65%
- inhibition (off-target kinases [3]; read-out: % Inhibition 2): 69%
- inhibition (off-target kinases [3]; read-out: % Inhibition Avg): 67%
- inhibition (off-target kinases [4]; read-out: % Inhibition 1): 8%
- inhibition (off-target kinases [4]; read-out: % Inhibition 2): 5%
- inhibition (off-target kinases [4]; read-out: % Inhibition Avg): 6%
- inhibition (off-target kinases [5]; read-out: % Inhibition 1): 5%
- inhibition (off-target kinases [5]; read-out: % Inhibition 2): 3%
- inhibition (off-target kinases [5]; read-out: % Inhibition Avg): 4%
- inhibition (off-target kinases [6]; read-out: % Inhibition 1): 28%
- inhibition (off-target kinases [6]; read-out: % Inhibition 2): 19%
- inhibition (off-target kinases [6]; read-out: % Inhibition Avg): 24%
- inhibition (off-target kinases [7]; read-out: % Inhibition 1): 101%
- inhibition (off-target kinases [7]; read-out: % Inhibition 2): 104%
- inhibition (off-target kinases [7]; read-out: % Inhibition Avg): 102%
